Source: US9364479B2, “Use of a receptor-type kinase modulator for treating polycystic kidney disease” (SYMPHONY EVOLUTION, INC., priority 2010, dated 2016)

Columns and labels:
[1] = test system: Adrenergic, Beta, Non-selective; assay: NovaScreen assay; assay type: binding
Melatonin, Non-selective = assay: NovaScreen assay; assay type: binding
Serotonin Transporter = biological target: T1, Serotonin Transporter (Homo sapiens, UniProt P31645); assay: NovaScreen assay; assay type: binding
T1 construct: NovaScreen

NOS (Neuronal-Binding) = biological target: T2, NOS (Neuronal-Binding) (Homo sapiens, UniProt P29475); assay: NovaScreen assay; conditions: read-out: Inhibition, 10 μM XL-647
T2 construct: NovaScreen

Thromboxane A2 (Human) = biological target: T3, Thromboxane A2 (Human) (Homo sapiens, UniProt P21731); assay: NovaScreen assay; assay type: binding; conditions: read-out: Inhibition, 10 μM XL-647
T3 construct: NovaScreen

[2] = test system: Corticotropin Releasing Factor, Non-selective; assay: NovaScreen assay; assay type: binding
[3] = biological target: T4, Cholecystokinin, CCK1 (CCKA) (Homo sapiens, UniProt P32238); assay: NovaScreen assay; assay type: binding; conditions: read-out: Inhibition, 10 μM XL-647
T4 construct: NovaScreen

[4] = test system: Glutamic Acid Decarboxylase; assay: NovaScreen assay; assay type: biochemical
PKA = biological target: T5, PKA (Bos taurus, UniProt P00517); assay: Chemiluminescent kinase assay; assay type: biochemical, bovine
T5 construct: Bovine (Heart),; purchased Upstate Biotechnology; host or cells: bovine heart
Protocol: Further screening was performed using the biochemical assay methods of Example 2. Additional description of the components and concentrations are summarized in Table 8, Table 9, and Table 10, below.

in vivo = assay: in vivo; set-up: species or system mice, rats, dogs, and monkeys
Protocol: The nonclinical Pharmacokinetics (PK) of XL-647 was studied in mice, rats, dogs, and monkeys. Animals were dosed either once or daily over several days, as described in Table 21 and 22 below. A summary of results can also be found in Tables 21 and 22 below. […] Mean tmax values were approximately 4 to 8 hours, and plasma terminal half-lives ranged from 9.41 to 20.9 hours.

[5] = Clinical Study XL-647-001 (Phase 1, Intermittent 5&9 schedule); conditions: human, in vivo
Protocol: (§1) Enrollment is complete, and all subjects have been off study as of 31 May 2007. Subjects initially received a powder in bottle (PIB) formulation using mass-based dosing. […] The final cohort received a fixed dose of 350 mg in a tablet formulation.

[6] = test system: subjects with advanced solid tumors; assay: as above
Protocol: as §1

[7] = mouse, in vivo, 100 mg/kg/day
Protocol: Throughout the dosing period, tumor size was measured twice weekly (where applicable), and body weight was measured daily. […] Tumors were excised at the termination of some studies and examined histologically for microvascular density (CD31 staining), proliferating cells (Ki67 staining), and necrosis (hematoxylin/eosin staining).
Tolerability was monitored in these studies by daily measurement of body weight.

[8] = human, in vivo
Flt-4 [9] = biological target: T6, Flt-4 (Homo sapiens, UniProt P35916); assay: Flt-4 autophosphorylation ELISA, transfected COS cells; assay type: cell-based; set-up: expressed in transfected cells; host or cells: COS cells; conditions: read-out: Cellular IC50, autophosphorylation
Protocol: The Flt-4 autophosphorylation ELISA utilized COS cells. Cells were seeded at 200,000 cells per well in 6-well plates in DMEM with 10% FBS and grown at 5% CO2 and 37° C. After 24 h growth, cells were transfected with 1 μg/well Flt-4 cDNA, using 3 μl FuGENE-6 (Roche). […] The cell monolayer was washed twice with cold PBS and harvested by scraping into 150 μl ice-cold lysis buffer. Cell lysates were centrifuged at 13,000 g for 15 min, diluted 1:10 in ice-cold PBS, and transferred to clear Streptavidin plates (Pierce) coated with anti-human […] (Flt-4) biotinylated goat IgG (2 μg/well, R&D Biosciences). After washing, anti-Flag M2 mouse IgG-HRP (Sigma 1 to 10,000 dilution) or anti phospho-tyrosine rabbit IgG-HRP (Zymed, 61-5820, 1:10,000) was used to detect total Flt-4 and phosphorylated Flt-4.
Target sequence in this assay (P35916 25-1363): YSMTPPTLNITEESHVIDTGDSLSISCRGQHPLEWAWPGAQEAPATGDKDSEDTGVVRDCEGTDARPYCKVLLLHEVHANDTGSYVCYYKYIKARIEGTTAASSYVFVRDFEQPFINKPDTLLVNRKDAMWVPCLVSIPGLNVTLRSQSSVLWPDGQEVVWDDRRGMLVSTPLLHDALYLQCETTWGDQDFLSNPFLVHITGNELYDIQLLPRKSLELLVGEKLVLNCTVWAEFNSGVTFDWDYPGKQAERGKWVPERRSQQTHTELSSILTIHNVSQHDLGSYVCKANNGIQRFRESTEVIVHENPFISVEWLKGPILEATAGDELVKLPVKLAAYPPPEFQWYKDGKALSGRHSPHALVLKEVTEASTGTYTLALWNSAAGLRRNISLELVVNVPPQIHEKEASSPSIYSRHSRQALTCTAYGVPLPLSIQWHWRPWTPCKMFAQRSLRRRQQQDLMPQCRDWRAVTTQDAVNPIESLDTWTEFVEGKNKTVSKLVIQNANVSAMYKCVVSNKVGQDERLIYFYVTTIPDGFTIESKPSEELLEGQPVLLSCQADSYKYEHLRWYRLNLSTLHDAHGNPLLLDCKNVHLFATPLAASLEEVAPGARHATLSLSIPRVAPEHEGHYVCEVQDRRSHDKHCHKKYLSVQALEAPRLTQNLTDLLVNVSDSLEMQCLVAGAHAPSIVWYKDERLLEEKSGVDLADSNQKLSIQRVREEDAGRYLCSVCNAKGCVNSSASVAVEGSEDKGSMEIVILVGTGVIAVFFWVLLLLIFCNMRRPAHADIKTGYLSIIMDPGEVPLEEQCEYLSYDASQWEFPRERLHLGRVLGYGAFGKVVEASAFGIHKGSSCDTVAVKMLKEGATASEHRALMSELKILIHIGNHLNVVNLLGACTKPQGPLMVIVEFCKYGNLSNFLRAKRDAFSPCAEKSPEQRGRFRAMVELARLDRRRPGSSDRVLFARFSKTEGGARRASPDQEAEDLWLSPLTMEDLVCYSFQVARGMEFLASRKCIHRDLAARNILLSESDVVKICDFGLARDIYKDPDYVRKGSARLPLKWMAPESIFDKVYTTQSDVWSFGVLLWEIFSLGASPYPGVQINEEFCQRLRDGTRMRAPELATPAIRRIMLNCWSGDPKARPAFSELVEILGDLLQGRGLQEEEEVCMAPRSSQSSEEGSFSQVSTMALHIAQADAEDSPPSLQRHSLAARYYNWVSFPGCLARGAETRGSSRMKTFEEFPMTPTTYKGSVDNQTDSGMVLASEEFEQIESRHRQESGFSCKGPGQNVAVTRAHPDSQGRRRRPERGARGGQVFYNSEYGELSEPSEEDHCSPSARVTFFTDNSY

Flt-4 [10] = biological target: T6, Flt-4; assay: AlphaScreen tyrosine kinase assay; assay type: biochemical; set-up: residues D725-R1298 of human Flt-4, Proqinase; purchased Proqinase; conditions: ATP at Km
Protocol: Dose-response experiments were done using 10 different inhibitor concentrations in 384-well microtiter plates. The ATP concentration used for each assay was equivalent to the Km for each kinase. IC50 values were calculated by nonlinear regression analysis using the four-variable equation: Y=min+(max−min)/[1+([I]/IC50)N], where Y is the observed signal, [I] is the inhibitor concentration, min is the background signal in the absence of enzyme (0% enzyme activity), max is the signal in the absence of inhibitor (100% enzyme activity), IC50 is the inhibitor concentration required at 50% enzyme inhibition, and N represents the empirical Hill slope as a measure of cooperativity.
An AlphaScreen tyrosine kinase assay was used to measure ErbB2 and Flt-4 activity. Donor beads coated with streptavidin and acceptor beads coated with PY100 anti-phosphotyrosine antibody (Perkin-Elmer) were used. Biotinylated poly(Glu,Tyr) 4:1 was used as the substrate. Substrate phosphorylation was measured by luminescence following donor-acceptor bead addition followed by complex formation. […] After 2 to 16 h of incubation at room temperature, plates were read using an AlphaQuest reader (Perkin-Elmer).
Target sequence in this assay (P35916 725-1298 isoform P35916-1): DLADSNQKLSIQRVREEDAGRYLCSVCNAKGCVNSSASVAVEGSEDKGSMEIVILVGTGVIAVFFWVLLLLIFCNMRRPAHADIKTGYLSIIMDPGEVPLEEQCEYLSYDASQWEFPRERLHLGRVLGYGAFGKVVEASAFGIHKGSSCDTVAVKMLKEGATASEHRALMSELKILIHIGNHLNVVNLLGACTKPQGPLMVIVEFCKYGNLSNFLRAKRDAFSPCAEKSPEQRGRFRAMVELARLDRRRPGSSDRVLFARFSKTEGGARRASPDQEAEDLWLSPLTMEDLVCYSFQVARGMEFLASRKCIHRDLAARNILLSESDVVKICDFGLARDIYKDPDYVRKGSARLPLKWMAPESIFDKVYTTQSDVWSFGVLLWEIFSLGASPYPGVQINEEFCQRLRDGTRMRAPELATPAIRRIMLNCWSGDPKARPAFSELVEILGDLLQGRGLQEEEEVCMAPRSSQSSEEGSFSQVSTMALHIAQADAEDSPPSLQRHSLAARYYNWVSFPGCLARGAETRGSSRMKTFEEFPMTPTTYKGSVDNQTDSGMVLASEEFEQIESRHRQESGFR

T1 sequence (P31645 whole entry): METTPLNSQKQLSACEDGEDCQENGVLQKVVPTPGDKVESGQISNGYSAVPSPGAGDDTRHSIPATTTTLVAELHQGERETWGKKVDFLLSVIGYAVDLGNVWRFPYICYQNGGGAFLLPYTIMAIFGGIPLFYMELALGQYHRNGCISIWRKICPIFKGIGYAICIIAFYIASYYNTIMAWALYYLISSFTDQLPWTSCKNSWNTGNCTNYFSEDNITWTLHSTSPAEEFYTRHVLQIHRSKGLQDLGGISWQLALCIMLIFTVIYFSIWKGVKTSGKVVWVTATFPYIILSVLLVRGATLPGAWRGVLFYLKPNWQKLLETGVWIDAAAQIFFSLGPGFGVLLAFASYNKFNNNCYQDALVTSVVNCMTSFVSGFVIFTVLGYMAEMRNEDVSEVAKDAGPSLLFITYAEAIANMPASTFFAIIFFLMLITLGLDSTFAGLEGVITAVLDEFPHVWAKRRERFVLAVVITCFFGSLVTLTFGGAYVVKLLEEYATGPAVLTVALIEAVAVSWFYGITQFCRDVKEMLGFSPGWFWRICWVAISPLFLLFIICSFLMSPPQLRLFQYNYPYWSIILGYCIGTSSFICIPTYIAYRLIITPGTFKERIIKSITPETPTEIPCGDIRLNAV
T3 sequence (P21731 whole entry): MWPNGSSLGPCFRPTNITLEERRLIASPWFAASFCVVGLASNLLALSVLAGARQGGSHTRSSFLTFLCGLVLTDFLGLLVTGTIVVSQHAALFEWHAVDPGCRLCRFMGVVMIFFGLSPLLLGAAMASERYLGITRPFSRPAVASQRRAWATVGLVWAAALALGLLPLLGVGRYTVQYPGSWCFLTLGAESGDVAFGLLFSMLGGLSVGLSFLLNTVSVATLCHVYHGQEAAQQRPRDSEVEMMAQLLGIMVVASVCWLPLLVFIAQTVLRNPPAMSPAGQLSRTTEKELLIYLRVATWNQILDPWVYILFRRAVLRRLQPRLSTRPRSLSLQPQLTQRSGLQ
T4 sequence (P32238 whole entry): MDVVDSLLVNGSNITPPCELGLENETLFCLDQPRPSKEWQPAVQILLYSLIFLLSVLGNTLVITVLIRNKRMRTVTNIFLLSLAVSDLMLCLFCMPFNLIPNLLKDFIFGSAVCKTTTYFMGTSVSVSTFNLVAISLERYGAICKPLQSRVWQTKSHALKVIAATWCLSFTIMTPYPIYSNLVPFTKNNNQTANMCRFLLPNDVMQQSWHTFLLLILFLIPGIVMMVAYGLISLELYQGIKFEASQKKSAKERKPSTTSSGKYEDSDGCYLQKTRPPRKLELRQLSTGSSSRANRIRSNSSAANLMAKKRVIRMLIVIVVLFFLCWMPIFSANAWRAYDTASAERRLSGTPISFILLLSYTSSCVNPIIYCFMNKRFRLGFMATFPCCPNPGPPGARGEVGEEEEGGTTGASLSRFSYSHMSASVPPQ
T2 sequence (P29475 whole entry): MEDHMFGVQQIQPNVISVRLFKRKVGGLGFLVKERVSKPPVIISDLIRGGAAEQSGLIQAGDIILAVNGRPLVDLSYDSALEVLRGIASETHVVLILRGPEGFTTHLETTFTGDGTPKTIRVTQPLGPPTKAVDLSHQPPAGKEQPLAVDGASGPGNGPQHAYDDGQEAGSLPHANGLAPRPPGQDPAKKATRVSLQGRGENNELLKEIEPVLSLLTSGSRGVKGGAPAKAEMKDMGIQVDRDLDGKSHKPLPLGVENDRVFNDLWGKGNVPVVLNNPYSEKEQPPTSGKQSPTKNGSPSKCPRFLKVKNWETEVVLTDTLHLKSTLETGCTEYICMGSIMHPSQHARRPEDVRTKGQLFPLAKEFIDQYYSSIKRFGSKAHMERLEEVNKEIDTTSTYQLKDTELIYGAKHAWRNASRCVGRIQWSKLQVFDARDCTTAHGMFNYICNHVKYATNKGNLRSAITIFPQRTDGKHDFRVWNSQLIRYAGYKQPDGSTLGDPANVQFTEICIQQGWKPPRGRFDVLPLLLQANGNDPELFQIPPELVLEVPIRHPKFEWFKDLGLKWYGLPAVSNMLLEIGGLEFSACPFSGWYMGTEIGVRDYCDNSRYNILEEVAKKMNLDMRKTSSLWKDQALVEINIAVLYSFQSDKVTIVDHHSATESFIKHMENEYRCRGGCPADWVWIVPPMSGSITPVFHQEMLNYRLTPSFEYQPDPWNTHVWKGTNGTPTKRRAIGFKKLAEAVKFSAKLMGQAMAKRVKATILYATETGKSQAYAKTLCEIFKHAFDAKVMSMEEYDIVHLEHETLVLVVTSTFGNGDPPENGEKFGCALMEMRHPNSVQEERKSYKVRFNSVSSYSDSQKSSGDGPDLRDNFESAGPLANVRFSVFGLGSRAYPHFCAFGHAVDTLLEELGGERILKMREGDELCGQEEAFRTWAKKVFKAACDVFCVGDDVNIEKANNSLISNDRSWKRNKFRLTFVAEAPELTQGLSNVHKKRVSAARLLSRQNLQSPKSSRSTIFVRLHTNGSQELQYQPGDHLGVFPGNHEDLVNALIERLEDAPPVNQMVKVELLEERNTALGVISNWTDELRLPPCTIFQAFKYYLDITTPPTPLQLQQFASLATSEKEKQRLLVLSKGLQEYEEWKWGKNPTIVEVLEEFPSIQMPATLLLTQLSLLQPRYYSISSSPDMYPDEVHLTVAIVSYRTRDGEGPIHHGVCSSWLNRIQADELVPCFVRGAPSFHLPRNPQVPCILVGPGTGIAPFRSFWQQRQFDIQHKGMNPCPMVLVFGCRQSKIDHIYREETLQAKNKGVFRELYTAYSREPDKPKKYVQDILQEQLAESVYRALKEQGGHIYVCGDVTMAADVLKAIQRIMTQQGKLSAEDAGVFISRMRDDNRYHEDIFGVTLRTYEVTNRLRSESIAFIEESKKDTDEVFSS

For `COc1cc2c(Nc3ccc(Cl)c(Cl)c3F)ncnc2cc1OC[C@@H]1C[C@@H]2CN(C)C[C@@H]2C1` [XL-647, N-(3,4-dichloro-2-fluorophenyl)-7-({[(3aR,5r,6aS)-2-methyloctahydrocyclopenta[c]pyrrol-5-yl]methyl}oxy)-6-(methyloxy)quinazolin-4-amine], the “Inhibition, 10 μM XL-647” value [1] was 18.01%, the “Inhibition, 10 μM XL-647” value (Melatonin, Non-selective) was 0.18% and the IC50 (Serotonin Transporter) was 188 nM. It also gave an inhibition at 10 µM (Serotonin Transporter; read-out: Inhibition, 10 μM XL-647) of 101%, an inhibition at 10 µM (NOS (Neuronal-Binding)) of 16.8% and an inhibition at 10 µM (Thromboxane A2 (Human)) of 1.51%. The “Inhibition, 10 μM XL-647” value [2] was 32.32%, the inhibition at 10 µM [3] was 47.5% and the “Inhibition, 10 μM XL-647” value [4] was −8.46%. For the same compound, the IC50 (PKA) was > 10000 nM, the accumulation in plasma (in vivo) was < 2 fold and the “dose proportionality of AUC, in words” value (in vivo) was “approximately dose proportionally over lower dose ranges”. The bioavailability (in vivo; dog, po) was 63 to 74%, the Tmax (in vivo; mouse, rat, dog, monkey) was 4 to 8 h and the half-life (in vivo; mouse, rat, dog, monkey) was 9.41 to 20.9 h. The volumes of distribution (in vivo; mouse, rat, dog, monkey, iv) was > 18 L/kg, the “oral bioavailability, in words” value (in vivo; po) was “orally bioavailable in mice, rats and dogs” and the MTD [5] was 4.68 mg/kg. For the same compound, the “MTD converted to a fixed dose” value ([6]; Intermittent 5&9 schedule) was 350 mg, the “subjects with unconfirmed partial response (PR)” value ([6]; NSCLC, Day 228) was “one” and the “other subjects with prolonged stable disease lasting greater than 3 months” value ([6]; intermittent schedule) was 14 subjects. For the same compound, the “tolerability, in words” value [7] was “generally well-tolerated in mice without substantial body weight loss”, the “dose proportionality of AUC and Cmax, in words” value [8] was “generally increased in proportion with dose” and the IC50 (Flt-4 [9]) was 90 nM. For the same compound, the IC50 (Flt-4 [10]) was 8.7 ± 0.6 nM.
